Experimental data reported in patent US8637557B2, “Aminothiazole derivative” (Taisho Pharmaceutical Co., Ltd, priority 2009, dated 2014).
pIC50: −log10 of the molar value. Where two headings read alike, the source gives them in different places. Each block holds one compound with its values, some of them ahead of it.

Biological target: T1, human PI 3-kinase p120γ (Homo sapiens, UniProt P48736)
T1 construct: purchased Millipore Corporation
Assay: PI 3-kinase p120γ enzyme activity inhibition test
Format: biochemical
Settings: ATP 10.0 μM, PIP2-PS 5.0 μM, 30° C., 2 hours
Experimental: Using human PI 3-kinase p120γ (manufactured by Millipore Corporation) and a mixed micellized product (hereinafter abbreviated as PIP2-PS) of the substrate thereof, L-a-Phosphatidyl-D-myo-inositol-4,5-bisphosphate (product of Calbiochem, hereinafter abbreviated as PIP2), and L-a-Phosphatidyl-L-Serine (manufactured by Sigma, hereinafter abbreviated as PS), the compound of the present invention was examined for the inhibitory action on PI3 Kinase p120γ enzyme activity (Km=8.9 μM for ATP, Km=4.0 μM for PIP2-PS).
PIP2-PS was prepared by mixing 500 μM of PIP2 and 2.5 nM of PS and sonicating the mixture for 40 minutes while ice cooling to cause micellization. ATP (final concentration 10.0 μM), [γ-^33P] ATP (final concentration 10 μCi/ml), PIP2-PS (final concentration 5.0 μM) and DMSO solutions of the test compound in different concentrations (compound final concentration 1.0×10^−5 to 2.4×10^−12 M, DMSO final concentration 0.1%) were added to PI 3-kinase p120γ, stirred and reacted at 30° C. for 2 hours. Using Phospholipid-Coated FlashPlate Microplates, 96-Well and Phospholipid FlashPlate Coating Buffer (both manufactured by PerkinElmer Co., Ltd.), PIP2-PS and phosphorylated PIP2-PS were allowed to be adsorbed to the well wall of the plate and collected. The well was washed twice with PBS (Phosphate-Buffered Saline) and dried. The radioactivity was measured using Top Count NXT (manufactured by PerkinElmer Co., Ltd.), whereby the phosphorylated amount (a) of PIP2-PS at the time of compound addition was calculated.
The same procedure was carried out in the absence of the test compound and the phosphorylated amount (b) of PIP2-PS was calculated. Further, the same procedure was carried out in the absence of both of the substrate and the test compound, and the PIP2-PS phosphorylated amount (c) of the background was calculated.
The PI3 Kinase p120γ enzyme activity suppression rate of the compound was calculated by the following formula. Suppression rate (%)=[1−(a−c)/(b−c)]×100
More specifically, using the suppression rate by the test compound of different concentrations, the IC50 value was calculated according to the dose-dependent inhibition curve analyzed by a data analysis software Origin (Lightstone Corp.) and used as the inhibitory activity index.

[1] = read-out: PI3Kγ (IC50 value class)

T1 sequence (P48736 whole entry): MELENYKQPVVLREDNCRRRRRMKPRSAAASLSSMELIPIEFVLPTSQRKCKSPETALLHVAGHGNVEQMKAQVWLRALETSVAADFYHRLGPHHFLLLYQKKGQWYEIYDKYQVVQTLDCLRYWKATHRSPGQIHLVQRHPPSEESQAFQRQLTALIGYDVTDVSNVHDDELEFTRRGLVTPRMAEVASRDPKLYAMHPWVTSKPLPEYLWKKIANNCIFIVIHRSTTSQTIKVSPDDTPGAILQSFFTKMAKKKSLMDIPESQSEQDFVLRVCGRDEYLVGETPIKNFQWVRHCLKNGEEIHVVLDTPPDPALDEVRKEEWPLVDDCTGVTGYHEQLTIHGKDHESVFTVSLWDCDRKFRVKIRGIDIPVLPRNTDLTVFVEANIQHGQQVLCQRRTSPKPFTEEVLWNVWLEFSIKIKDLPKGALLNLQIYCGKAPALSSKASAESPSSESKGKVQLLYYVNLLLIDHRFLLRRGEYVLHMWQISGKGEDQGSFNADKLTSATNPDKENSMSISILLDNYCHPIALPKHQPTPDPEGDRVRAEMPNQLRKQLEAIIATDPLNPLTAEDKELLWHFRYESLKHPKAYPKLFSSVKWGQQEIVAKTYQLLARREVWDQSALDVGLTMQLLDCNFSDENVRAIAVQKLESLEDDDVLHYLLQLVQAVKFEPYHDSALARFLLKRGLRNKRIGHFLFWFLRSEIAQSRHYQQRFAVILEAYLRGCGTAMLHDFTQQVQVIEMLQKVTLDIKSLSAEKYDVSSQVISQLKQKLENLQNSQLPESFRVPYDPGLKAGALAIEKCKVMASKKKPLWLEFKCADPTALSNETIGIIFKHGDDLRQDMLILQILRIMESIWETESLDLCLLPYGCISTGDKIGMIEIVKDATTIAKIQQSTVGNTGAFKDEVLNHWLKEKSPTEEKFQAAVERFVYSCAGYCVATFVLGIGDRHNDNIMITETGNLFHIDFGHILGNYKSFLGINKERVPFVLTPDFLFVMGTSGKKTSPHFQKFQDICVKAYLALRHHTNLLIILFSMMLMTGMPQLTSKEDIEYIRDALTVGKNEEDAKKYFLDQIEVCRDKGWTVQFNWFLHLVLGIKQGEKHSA

Structure (SMILES): Cc1nc(NC(=O)NCC(C)O)sc1-c1nc(-c2cccnc2)no1 (centres unmarked) [Example 175]
pIC50 [1]: > 7.00

Structure (SMILES): CC(=O)Nc1nc(C)c(-c2nc(-c3ccncc3)no2)s1 [Example 11]
pIC50 [1]: 5.00 to 6.30

Structure (SMILES): COCCNC(=O)Nc1nc(C)c(-c2nc(-c3cccnc3)no2)s1 [Example 122]
pIC50 [1]: > 7.00

Structure (SMILES): CC(=O)Nc1nc(C)c(-c2nc(CN3CCOCC3)no2)s1 [Example 75]
pIC50 [1]: 5.00 to 6.30

Structure (SMILES): Cc1nc(NC(=O)NCCCC(=O)OC(C)(C)C)sc1-c1nc(-c2cccnc2)no1 [Example 125]
pIC50 [1]: > 7.00

Structure (SMILES): CC(=O)Nc1nc(C)c(-c2nc(-c3cc[nH]c(=O)c3)no2)s1 [Example 113]
pIC50 [1]: 6.30 to 7.00

Structure (SMILES): Cc1nc(NC(=O)NCCC(=O)NC(C)(C)C)sc1-c1nc(CC(C)(C)CO)no1 [Example 161]
pIC50 [1]: > 7.00

Structure (SMILES): CCOC(=O)CC(C)NC(=O)Nc1nc(C)c(-c2nc(-c3cccnc3)no2)s1 (centres unmarked) [Example 143]
pIC50 [1]: > 7.00

Structure (SMILES): CC(=O)Nc1nc(C)c(-c2nc(-c3ccc(OCc4cccnc4)nc3)no2)s1 [Example 5]
pIC50 (read-out: IC50 value): 5.14 | pIC50 [1]: 5.00 to 6.30

Structure (SMILES): COCC(=O)Nc1nc(C)c(-c2nc(-c3cccnc3)no2)s1 [Example 116]
pIC50 [1]: > 7.00

Structure (SMILES): Cc1nc(NC(=O)CCNC(=O)OC(C)(C)C)sc1-c1nc(CC(C)(C)CO)no1 [Example 163]
pIC50 [1]: 6.30 to 7.00

Structure (SMILES): Cc1nc(NC(=O)NCC(=O)OC(C)(C)C)sc1-c1nc(-c2cccnc2)no1 [Example 126]
pIC50 [1]: > 7.00

Structure (SMILES): Cc1nc(NC(=O)NCCC(=O)OC(C)(C)C)sc1-c1nc(CC(C)(C)CO)no1 [Example 157]
pIC50 [1]: > 7.00

Structure (SMILES): Cc1nc(NC(=O)NCCCOC(C)(C)C)sc1-c1nc(-c2cccnc2)no1 [Example 130]
pIC50 [1]: > 7.00

Structure (SMILES): Cc1nc(N)sc1-c1nc(C(C)(C)C)no1 [Example 114]
pIC50 [1]: > 7.00

Structure (SMILES): Cc1nc(NC(=O)NCCO)sc1-c1nc(-c2cccnc2)no1 [Example 120]
pIC50 [1]: > 7.00

Structure (SMILES): CC(=O)Nc1nc(C)c(-c2nc(N3CC[C@@H](O)C3)no2)s1 [Example 103]
pIC50 [1]: 6.30 to 7.00

Structure (SMILES): CC(=O)Nc1nc(C)c(-c2nc(C3CCCC3)no2)s1 [Example 18]
pIC50 [1]: > 7.00

Structure (SMILES): Cc1nc(NC(=O)NCCN2CCOCC2)sc1-c1nc(-c2cccnc2)no1 [Example 121]
pIC50 [1]: > 7.00

Structure (SMILES): Cc1nc(NC(=O)NCCNC(=O)OC(C)(C)C)sc1-c1nc(-c2cccnc2)no1 [Example 134]
pIC50 [1]: > 7.00

Structure (SMILES): Cc1nc(NC(=O)NCCCN(C)C)sc1-c1nc(-c2cccnc2)no1 [Example 127]
pIC50 [1]: > 7.00

Structure (SMILES): CC(=O)Nc1nc(C)c(-c2nc(C3CCCCC3)no2)s1 [Example 9]
pIC50 [1]: > 7.00

Structure (SMILES): CCOC(=O)CCCC(=O)Nc1nc(C)c(-c2nc(-c3cccnc3)no2)s1 [Example 118]
pIC50 [1]: > 7.00

Structure (SMILES): Cc1nc(NC(=O)NCCC(=O)N2CCN(C(=O)OC(C)(C)C)CC2)sc1-c1nc(CC(F)(F)F)no1 [Example 168]
pIC50 [1]: 6.30 to 7.00

Structure (SMILES): CC(=O)Nc1nc(C)c(-c2nc(-c3cccc(CO)c3)no2)s1 [Example 21]
pIC50 [1]: > 7.00

Structure (SMILES): COCC(=O)Nc1nc(C)c(-c2nc(-c3cccc(CO)c3)no2)s1 [Example 173]
pIC50 [1]: > 7.00

Structure (SMILES): Cc1nc(NC(N)=O)sc1-c1nc(-c2cccnc2)no1 [Example 124]
pIC50 [1]: > 7.00

Structure (SMILES): Cc1nc(NC(=O)NCCC(=O)N2CCOCC2)sc1-c1nc(-c2cccnc2)no1 [Example 145]
pIC50 [1]: > 7.00

Structure (SMILES): CC(=O)Nc1nc(C)c(-c2nc(-c3ccccc3CO)no2)s1 [Example 29]
pIC50 [1]: > 7.00

Structure (SMILES): Cc1nc(NC(=O)NCCC(=O)NC(C)(C)C)sc1-c1nc(-c2cccnc2)no1 [Example 132]
pIC50 [1]: > 7.00

Next, values leading:

pIC50 [1]: > 7.00
Structure (SMILES): CC(=O)Nc1nc(C)c(-c2nc(CC(C)(C)CNS(C)(=O)=O)no2)s1 [Example 44]

pIC50 [1]: > 7.00
Structure (SMILES): CC(=O)Nc1nc(C)c(-c2nc(CC(C)(C)C(=O)O)no2)s1 [Example 108]

pIC50 [1]: > 7.00
Structure (SMILES): CC(=O)Nc1nc(C)c(-c2nc(C3CC3(C)C)no2)s1 (centres unmarked) [Example 101]

pIC50 [1]: > 7.00
Structure (SMILES): CC(=O)Nc1nc(C)c(-c2nc(CC(F)(F)F)no2)s1 [Example 19]

pIC50 [1]: > 7.00
Structure (SMILES): CC(=O)Nc1nc(C)c(-c2nc(CC(C)(C)C)no2)s1 [Example 68]

pIC50 [1]: > 7.00
Structure (SMILES): CC(=O)Nc1nc(C)c(-c2nc(CC3CC3)no2)s1 [Example 80]

pIC50 [1]: > 7.00
Structure (SMILES): CC(=O)Nc1nc(C)c(-c2nc(CC(C)(C)C(C)(C)O)no2)s1 [Example 106]

pIC50 [1]: 5.00 to 6.30
Structure (SMILES): COC(Cc1noc(-c2sc(NC(C)=O)nc2C)n1)OC [Example 52]

pIC50 [1]: 6.30 to 7.00
Structure (SMILES): CC(=O)Nc1nc(C)c(-c2nc(C(=O)C(C)(C)C)no2)s1 [Example 88]

pIC50 [1]: > 7.00
Structure (SMILES): CCC(O)C(C)(C)Cc1noc(-c2sc(NC(C)=O)nc2C)n1 (centres unmarked) [Example 97]

pIC50 [1]: 5.00 to 6.30
Structure (SMILES): CC(=O)Nc1nc(C)c(-c2nc(CCCOC(C)=O)no2)s1 [Example 30]

pIC50 [1]: > 7.00
Structure (SMILES): CC(=O)Nc1nc(C)c(-c2nc(C(C)=O)no2)s1 [Example 60]

pIC50 [1]: > 7.00
Structure (SMILES): COc1ncccc1-c1noc(-c2sc(NC(C)=O)nc2C)n1 [Example 16]

pIC50 [1]: 5.00 to 6.30
Structure (SMILES): CCOC(C)(OCC)c1noc(-c2sc(NC(C)=O)nc2C)n1 [Example 58]

pIC50 [1]: 6.30 to 7.00
Structure (SMILES): CC(=O)Nc1nc(C)c(-c2nc(C(=O)NCC(C)O)no2)s1 (centres unmarked) [Example 91]

pIC50 [1]: > 7.00
Structure (SMILES): CCC(CC)(CO)Cc1noc(-c2sc(NC(C)=O)nc2C)n1 [Example 46]
